For five molecules, solubility, melting point and Solubility in water results are on record in patent US6541425B1, “Retarding formulations of active substances used for plant protection” (priority 1998, dated 2003).

Data set [1] is described as follows: Solubility in water of the active ingredients. The data set is classed as physicochemical. The settings on record: for solubility: water.

Values after ≈ are worked out from the molar mass of the structure shown.

In the case of `CNC(=O)/C(=N/OC)c1ccccc1CO/N=C(C)/C(=N/OC)OC(C)C` [Compound 1, N-methyl-2-[2-(2-isopropoxy-2-(Z)-methoxyimino-1-methyl-(E)-ethylideneaminooxymethyl)phenyl]-2-(E)-methoxyiminoacetamide], the melting point – broadly, the temperature, or range, at which the solid turns liquid – came out at 57 °C. The solubility – broadly, the dissolved amount per volume that the medium holds – in data set [1] was determined as 1340 µg/mL (≈ 3.54 mM). The corresponding values for `CCC(C)OC(=N\OC)/C(C)=N/OCc1ccccc1/C(=N\OC)C(=O)NC` (centres unmarked) [Compound 2, N-methyl-2-[2-(2-sec-butoxy-2-(Z)-methoxyimino-1-methyl-(E)-ethylideneaminooxymethyl)phenyl]-2-(E)-methoxyiminoacetamide] are 48 to 50 °C and 1190 µg/mL (≈ 3.03 mM).

In turn, `CNC(=O)/C(=N/OC)c1ccccc1CO/N=C(C)/C(=N/OC)OCC(C)C` [Compound 3, N-methyl-2-[2-(2-isobutoxy-2-(Z)-methoxyimino-1-methyl-(E)-ethylideneaminooxymethyl)phenyl]-2-(E)-methoxyiminoacetamide] gave a melting point of 68 °C. In addition, the concentration in solution in data set [1] (solubility) was 500 µg/mL (≈ 1.27 mM). In turn, `CNC(=O)/C(=N/OC)c1ccccc1CO/N=C(C)/C(=N/OC)C(/C)=N/OC` [Compound 4, N-methylphenyl-2-((3,4-[E]-bis(methoximino), 2-[E]-oximinopentyl)methyl)-alpha-[E]-methoximinoacetamide] returned a Solubility in water in data set [1] of 450 µg/mL (≈ 1.15 mM).

As for “N-methylphenyl-2-((3-[E]-methoxyimino, 5-methyl, 2-[E]-oximino-hex-4-en-yl)methyl)-alpha-[E]-methoximinoacetamide [Compound 5]”, the Solubility in water in data set [1] worked out at 58 µg/mL.
